Reference: ChEMBL document CHEMBL1125173, “Cannabimimetic activity of novel enantiomeric, benzofuran cannabinoids” (1990)

Tests used:
Format in all cases: functional
Mus musculus [1] = assay: Psychotropic Effect evaluated by Mouse Ring Test at a dose of 0.1 mg/kg
Mus musculus [2] = assay: Psychotropic Effect evaluated by Mouse Ring Test at a dose of 10 mg/kg
Mus musculus [3] = assay: Psychotropic Effect evaluated by Mouse Ring Test at a dose of 1 mg/kg
Mus musculus [4] = assay: Psychotropic Effect evaluated by Mouse Ring Test at a dose of 20 mg/kg
Columba livia [5] = assay: Effective Dose when administered at a dose of 0.99 mg/kg in pigeons; details: in Columbidae
Rattus norvegicus [6] = assay: Effective Dose when administered at a dose of 0.98 mg/kg in rats
Columba livia [7] = assay: Effective Dose when administered in pigeons; details: in Columbidae
Rattus norvegicus [8] = assay: Effective Dose when administered at a dose of 0.94 mg/kg in rats
Columba livia [9] = assay: Effective Dose when administered at a dose of 0.78 mg/kg in pigeons; details: in Columbidae

| Structure (SMILES) | Psychotropic Effect (Mus musculus [1]) | Psychotropic Effect (Mus musculus [2]) | Psychotropic Effect (Mus musculus [3]) | Psychotropic Effect (Mus musculus [4]) | ED50 (Columba livia [5]) | ED50 (Rattus norvegicus [6]) | ED50 (Columba livia [7]) | ED50 (Rattus norvegicus [8]) | ED50 (Columba livia [9]) |
| --- | --- | --- | --- | --- | --- | --- | --- | --- | --- |
| C=C1[C@H]2Oc3cc(C(C)(C)CCCCCC)cc(O)c3[C@H]2[C@@H]2C[C@H]1C2(C)C | 13.2 | 66.1 | 42 | 89.2 | 0.17 mg/kg | 0.72 mg/kg | – | – | – |
| CCCCCc1cc(O)c2c(c1)OC(C)(C)[C@@H]1CCC(C)=C[C@@H]21 [DRONABINOL] | – | – | – | – | – | – | 0.18 mg/kg | 0.66 mg/kg | – |
| CCCCCc1cc(O)c2c(c1)OC(C)(C)[C@@H]1CC=C(C)C[C@@H]21 [DELTA-8-TETRAHYDROCANNABINOL] | 13.2 | 41.3 | 20.9 | – | – | – | – | – | – |
| C=C1[C@H]2Oc3cc(C(C)(C)CCCCCC)cc(O)c3[C@H]2[C@H]2C[C@@H]1C2(C)C | 10 | 28.1 | 20 | 43.2 | – | – | – | – | 3.57 mg/kg |
